From patent US8163753B2, “2,3-dihydro-6-nitroimidazo (2,1-b) oxazole compounds for the treatment of tuberculosis” (priority 2003, dated 2012)

`CC(C)(C)OC(=O)N1CCCN(c2ccc(-c3ccc(OC[C@@]4(C)Cn5cc([N+](=O)[O-])nc5O4)cc3)cc2)CC1` showed a melting point of 213.8 to 215.7 °C. With `C[C@]1(COc2ccc(N3CCC(Nc4ccc(Oc5ccc(OC(F)(F)F)cc5)cc4)CC3)cc2)Cn2cc([N+](=O)[O-])nc2O1` the melting point was 198.6 to 201.1 °C (dec.). `CN(c1ccc(OC(F)(F)F)cc1)C1CCN(C2CCN(c3ccc(OC[C@@]4(C)Cn5cc([N+](=O)[O-])nc5O4)cc3)CC2)CC1` gave a melting point of 196 to 197 °C. Molecule `C[C@]1(COc2ccc(C3CCN(CC=Cc4ccc(C(F)(F)F)cc4)CC3)cc2)Cn2cc([N+](=O)[O-])nc2O1` has a melting point of 185.9 to 187.1 °C. For `C[C@]1(COc2ccc(N3CCC(CO)CC3)cc2)Cn2cc([N+](=O)[O-])nc2O1`, the melting point was 171 to 173.8 °C. Work on `C[C@]1(COc2ccc(N3CCN(CCOc4ccc(OC(F)(F)F)cc4)CC3)cc2)Cn2cc([N+](=O)[O-])nc2O1` yielded a melting point of 194.8 to 195.6 °C. Molecule `C[C@]1(COc2ccc(N3CCC(N4CCN(c5ccc(Cl)cc5)CC4)CC3)cc2)Cn2cc([N+](=O)[O-])nc2O1` has a melting point of 247 to 249 °C. With `C[C@]1(COc2ccc(N3CCC(COc4ccc(-c5ccccc5)cc4)CC3)cc2)Cn2cc([N+](=O)[O-])nc2O1` the melting point was 245 °C (dec.). Molecule `CC1(COc2ccc(N3CCC(Cc4ccc(OC(F)(F)F)cc4)CC3)cc2)Cn2cc([N+](=O)[O-])nc2O1` (stereo not drawn) has a melting point of 180.9 to 182.7 °C. In the case of `O=[N+]([O-])c1cn2c(n1)O[C@@H](COc1ccc(N3CCC(COCc4ccc(OC(F)(F)F)cc4)CC3)cc1)C2`, the melting point is reported as 140.4 to 141.7 °C. Molecule `CN(Cc1cc(C(F)(F)F)cc(C(F)(F)F)c1)C1CCN(c2ccc(OC[C@@]3(C)Cn4cc([N+](=O)[O-])nc4O3)cc2)CC1` has a melting point of 193.8 to 195.3 °C. For `C[C@]1(COc2ccc(N3CCC(CCOCc4ccc(C(F)(F)F)cc4)CC3)cc2)Cn2cc([N+](=O)[O-])nc2O1`, the melting point was 198 to 199.2 °C. Molecule `C[C@]1(COc2ccc(N3CCC(COCc4ccc(C(F)(F)F)cc4)CC3)cc2)Cn2cc([N+](=O)[O-])nc2O1` has a melting point of 172.3 to 172.9 °C. In the case of `C[C@]1(COc2ccc(N3CCC(OCC=Cc4ccc(OC(F)(F)F)cc4)CC3)cc2)Cn2cc([N+](=O)[O-])nc2O1`, the melting point is reported as 213.7 to 217.4 °C. For `C[C@]1(COc2ccc(N3CCC(COc4ccc(C(F)(F)F)cc4)CC3)cc2)Cn2cc([N+](=O)[O-])nc2O1`, the melting point was 223.2 to 225.2 °C (dec.). Work on `C[C@]1(COc2ccc(N3CCN(CC=Cc4ccc(C(F)(F)F)cc4)CC3)cc2)Cn2cc([N+](=O)[O-])nc2O1` yielded a melting point of 199.7 to 202 °C. Work on `C[C@]1(COc2ccc(N3CCC(COC4CCCCO4)CC3)cc2)Cn2cc([N+](=O)[O-])nc2O1` (stereo partly drawn) yielded a melting point of 217.6 to 218.6 °C. For `CN(Cc1ccccc1C(F)(F)F)C1CCN(c2ccc(OC[C@@]3(C)Cn4cc([N+](=O)[O-])nc4O3)cc2)CC1`, the melting point was 189.6 to 190.2 °C. In the case of `C[C@]1(COc2ccc(N3CCC(N4CCN(c5ccc(OC(F)(F)F)cc5)CC4)CC3)cc2)Cn2cc([N+](=O)[O-])nc2O1`, the melting point is reported as 279 to 281 °C. `C[C@]1(COc2ccc(N3CCN(Cc4csc(-c5ccc(C(F)(F)F)cc5)n4)CC3)cc2)Cn2cc([N+](=O)[O-])nc2O1` gave a melting point of 210 to 212.1 °C. For `C[C@]1(COc2ccc3nc(N4CCC(=Cc5ccc(OC(F)(F)F)cc5)CC4)ccc3c2)Cn2cc([N+](=O)[O-])nc2O1`, the melting point was 193.9 to 195.9 °C. With `O=[N+]([O-])c1cn2c(n1)O[C@@H](COc1ccc(N3CCC(COc4ccc(C(F)(F)F)cc4)CC3)cc1)C2` the melting point was 175 to 180 °C. With `C[C@]1(COc2ccc(-c3ccc(N4CCN(Cc5ccc(Cl)cc5)CC4)cc3)cc2)Cn2cc([N+](=O)[O-])nc2O1` the melting point was 247.8 to 248.5 °C (dec.). `C[C@]1(COc2ccc3nc(N4CCC(Cc5ccc(OC(F)(F)F)cc5)CC4)ccc3c2)Cn2cc([N+](=O)[O-])nc2O1` gave a melting point of 184.9 to 185.9 °C. In the case of `O=[N+]([O-])c1cn2c(n1)O[C@@H](COc1ccc(N3CCC(OCc4ccc(OC(F)(F)F)cc4)CC3)cc1)C2`, the melting point is reported as 188.3 to 189.4 °C. With `C[C@]1(COc2ccc(CN3CCC(Cc4ccc(OC(F)(F)F)cc4)CC3)cc2)Cn2cc([N+](=O)[O-])nc2O1` the melting point was 172.5 to 174.1 °C. Work on `C[C@]1(COc2ccc(N3CCC(CCOCc4ccc(OC(F)(F)F)cc4)CC3)cc2)Cn2cc([N+](=O)[O-])nc2O1` yielded a melting point of 204.8 to 206.7 °C. In the case of `C[C@]1(COc2ccc(N3CCN(CC=Cc4ccc(Cl)c(Cl)c4)CC3)cc2)Cn2cc([N+](=O)[O-])nc2O1`, the melting point is reported as 204.7 to 206.4 °C. In the case of `O=[N+]([O-])c1cn2c(n1)OC(COc1ccc(N3CCC(COCc4ccc(C(F)(F)F)cc4)CC3)cc1)C2` (stereo not drawn), the melting point is reported as 140.2 to 141.7 °C. With `CN(Cc1ccc(C(F)(F)F)cc1F)C1CCN(c2ccc(OC[C@@]3(C)Cn4cc([N+](=O)[O-])nc4O3)cc2)CC1` the melting point was 197.5 to 199.2 °C. `CN(CCOc1ccc(OC(F)(F)F)cc1)C1CCN(c2ccc(OC[C@@]3(C)Cn4cc([N+](=O)[O-])nc4O3)cc2)CC1` showed a melting point of 185.7 to 187.7 °C. For `C[C@]1(COc2ccc(N3CCCN(c4ccc(OC(F)(F)F)cc4)CC3)cc2)Cn2cc([N+](=O)[O-])nc2O1`, the melting point was 134 to 137.9 °C. For `CC1(COc2ccc(N3CCC(Cc4ccc(Cl)c(Cl)c4)CC3)cc2)Cn2cc([N+](=O)[O-])nc2O1` (stereo not drawn), the melting point was 191.4 to 192.1 °C. Molecule `CN(CC=Cc1ccc(OC(F)(F)F)cc1)C1CCN(c2ccc(OC[C@@]3(C)Cn4cc([N+](=O)[O-])nc4O3)cc2)CC1` has a melting point of 213 to 214.9 °C. Molecule `C[C@]1(COc2ccc(N3CCC(CCc4ccc(OC(F)(F)F)cc4)CC3)cc2)Cn2cc([N+](=O)[O-])nc2O1` has a melting point of 239.4 to 241.3 °C. Molecule `CN(c1ccc(Cl)cc1)C1CCN(C2CCN(c3ccc(OC[C@@]4(C)Cn5cc([N+](=O)[O-])nc5O4)cc3)CC2)CC1` has a melting point of 230.8 to 232 °C. For `C[C@]1(COc2ccc(C3CCN(Cc4csc(-c5ccc(C(F)(F)F)cc5)n4)CC3)cc2)Cn2cc([N+](=O)[O-])nc2O1`, the melting point was 194.6 to 196.4 °C. Molecule `C[C@]1(COc2ccc(N3CCC(COc4ccc(CCl)cc4)CC3)cc2)Cn2cc([N+](=O)[O-])nc2O1` has a melting point of 140.4 to 141.7 °C. `C[C@]1(COc2ccc(N3CCC(Cc4cccc(OC(F)(F)F)c4)CC3)cc2)Cn2cc([N+](=O)[O-])nc2O1` showed a melting point of 187.4 to 189.8 °C. In the case of `C[C@]1(COc2ccc(N3CCC(Nc4cc(Cl)cc(Cl)c4)CC3)cc2)Cn2cc([N+](=O)[O-])nc2O1`, the melting point is reported as 122 to 124 °C. Work on `O=[N+]([O-])c1cn2c(n1)OC(COc1ccc(N3CCC(COc4ccc(Cl)cc4)CC3)cc1)C2` (stereo not drawn) yielded a melting point of 191.2 to 192.5 °C. For `O=[N+]([O-])c1cn2c(n1)O[C@@H](COc1ccc(N3CCC(Cc4ccc(OC(F)(F)F)cc4)CC3)cc1)C2`, the melting point was 160.5 to 164 °C. Work on `C[C@]1(COc2ccc(N3CCC(Cc4ccc(Cl)cc4)CC3)cc2)Cn2cc([N+](=O)[O-])nc2O1` yielded a melting point of 207.1 to 211.2 °C. For `CN(CC1CCN(c2ccc(OC(F)(F)F)cc2)CC1)c1ccc(OC[C@@]2(C)Cn3cc([N+](=O)[O-])nc3O2)cc1`, the melting point was 172.5 to 175.2 °C. Molecule `CCCc1ccc(N(C)C2CCN(c3ccc(OC[C@@]4(C)Cn5cc([N+](=O)[O-])nc5O4)cc3)CC2)cc1` has a melting point of 198 to 199 °C. `CN(CCCOc1ccc(OC(F)(F)F)cc1)C1CCN(c2ccc(OC[C@@]3(C)Cn4cc([N+](=O)[O-])nc4O3)cc2)CC1` gave a melting point of 167.4 to 170.2 °C. `CCCc1ccc(NC2CCN(c3ccc(OC[C@@]4(C)Cn5cc([N+](=O)[O-])nc5O4)cc3)CC2)cc1` showed a melting point of 222 to 223 °C. With `C[C@]1(COc2ccc(N3CCN(Cc4ccc(N5CCC(Oc6ccc(OC(F)(F)F)cc6)CC5)cc4)CC3)cc2)Cn2cc([N+](=O)[O-])nc2O1` the melting point was 198.2 to 201.4 °C. For `C[C@]1(COc2ccc3c(c2)nc(N2CCN(Cc4ccc(OC(F)(F)F)cc4)CC2)n3Cc2ccccc2)Cn2cc([N+](=O)[O-])nc2O1`, the melting point was 101.3 to 104 °C. With `C[C@]1(COc2ccc(N3CCC(OCc4ccc(OC(F)(F)F)cc4)CC3)cc2)Cn2cc([N+](=O)[O-])nc2O1` the melting point was 214.3 to 217.7 °C. In the case of `C[C@]1(COc2ccc(-c3ccc(N4CCN(Cc5ccc(C(F)(F)F)cc5)CC4)cc3)cc2)Cn2cc([N+](=O)[O-])nc2O1`, the melting point is reported as 247.7 to 248.4 °C (dec.). `C[C@]1(COc2ccc(N3CCC(Nc4ccc(Cl)c(Cl)c4)CC3)cc2)Cn2cc([N+](=O)[O-])nc2O1` gave a melting point of 146 to 147.4 °C. Molecule `C[C@]1(COc2ccc(N3CCC(OCc4ccc(C(F)(F)F)cc4)CC3)cc2)Cn2cc([N+](=O)[O-])nc2O1` has a melting point of 217.4 to 219.7 °C. `CC1(COc2ccc(N3CCN(CC=Cc4ccc(OC(F)(F)F)cc4)CC3)cc2)Cn2cc([N+](=O)[O-])nc2O1` (stereo not drawn) showed a melting point of 181.1 to 182.2 °C. With `C[C@]1(COc2ccc(-c3ccc(N4CCN(Cc5ccc(Cl)c(Cl)c5)CC4)cc3)cc2)Cn2cc([N+](=O)[O-])nc2O1` the melting point was 222.6 to 225.1 °C (dec.). `C[C@]1(COc2ccc3cc(N4CCC(Oc5ccc(OC(F)(F)F)cc5)CC4)ccc3c2)Cn2cc([N+](=O)[O-])nc2O1` showed a melting point of 204.8 to 207.9 °C. For `C[C@]1(COc2ccc(N3CCC(COC(=O)Nc4ccc(OC(F)(F)F)cc4)CC3)cc2)Cn2cc([N+](=O)[O-])nc2O1`, the melting point was 211.6 to 212 °C (dec.). With `O=[N+]([O-])c1cn2c(n1)OC(COc1ccc(N3CCC(Cc4ccc(OC(F)(F)F)cc4)CC3)cc1)C2` (stereo not drawn) the melting point was 132.7 to 135 °C. `CC1(Cc2ccc(N3CCC(Oc4ccc(OC(F)(F)F)cc4)CC3)cc2)Cn2cc([N+](=O)[O-])nc2O1` (stereo not drawn) showed a melting point of 184.9 to 186.8 °C. For `C[C@]1(COc2ccc(-c3nc(-c4ccc(Cl)cc4)co3)cc2)Cn2cc([N+](=O)[O-])nc2O1`, the melting point was 248.8 to 251.5 °C. In the case of `CN(C(=O)OC(C)(C)C)C1CCN(Cc2ccc(OCC3(C)Cn4cc([N+](=O)[O-])nc4O3)cc2)CC1` (stereo not drawn), the melting point is reported as 138.5 to 141.9 °C. `CC1(COc2ccc(N3CCC(COCc4ccc(OC(F)(F)F)cc4)CC3)cc2)Cn2cc([N+](=O)[O-])nc2O1` (stereo not drawn) showed a melting point of 153.1 to 153.7 °C. Molecule `C[C@]1(COc2ccc(C(=O)NCC(=O)N3CCC(Oc4ccc(OC(F)(F)F)cc4)CC3)cc2)Cn2cc([N+](=O)[O-])nc2O1` has a melting point of 186.9 to 189.5 °C. For `C[C@]1(COc2ccc(N3CCC(CCOCc4ccc(Cl)cc4)CC3)cc2)Cn2cc([N+](=O)[O-])nc2O1`, the melting point was 197.6 to 198.2 °C. In the case of `CN(c1ccc(OC[C@@]2(C)Cn3cc([N+](=O)[O-])nc3O2)cc1)C1CCN(c2ccc(OC(F)(F)F)cc2)CC1`, the melting point is reported as 137.9 to 139.2 °C. `C[C@]1(COc2ccc(N3CCC(Oc4ccc(OC(F)(F)F)cc4)CC3)nc2)Cn2cc([N+](=O)[O-])nc2O1` gave a melting point of 185.9 to 186.7 °C.
